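Five concentrations, 48 hours, 96-well plates. The concentration for full growth arrest is given as TGI.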
Experiments:
Assay in all cases: NCI-60 cell line screen, 48 h
[1] = test system: KM12 colon
[2] = test system: MCF7 breast
[3] = test system: HOP-62 NSCLC
[4] = test system: M14 melanoma
[5] = test system: IGROV1 ovarian
[6] = test system: BT-549 breast
[7] = test system: CAKI-1 renal
[8] = test system: SK-OV-3 ovarian
[9] = test system: U251 CNS
[10] = test system: MOLT-4 leukemia

Measured: TGI

O=C(Nc1ccccc1)N(CCCCN(Cc1ccccc1)C(=O)Nc1ccccc1)Cc1ccccc1
> 100 µM: [1] | [2] | [3] | [4] | [5] | [6] | [7] | [8] | [9] | [10]

NNC(=O)Cn1c2ccc(Br)cc2c2nc3ccccc3nc21
> 100 µM: [1] | [2] | [4] | [5] | [6] | [7] | [8] | [9] | [10]
89.8 µM: [3]

COC(=O)c1c(OC(C)=O)ccc2c1c1c(n2C)C(=O)c2ccccc2C1=O
57 µM: [6]
86.4 µM: [1]
46.2 µM: [8]
67.4 µM: [3]
> 100 µM: [2] | [4] | [9] | [10]
22.3 µM: [5]
61.7 µM: [7]

COc1ccc(-n2c(=O)n(C)c(=O)n2-c2ccc(OC)cc2)cc1
> 100 µM: [1] | [2] | [3] | [4] | [5] | [6] | [7] | [8] | [9] | [10]

CSC1=N/C(=C\c2ccco2)C(=O)N1CN1CCOCC1
> 100 µM: [1] | [2] | [3] | [4] | [5] | [7] | [8] | [9]
> 96.2 µM: [10]
41.2 µM: [6]

COC(=O)c1c(O)ccc2c1c1c(n2Cc2cccc(C)c2)C(=O)c2ccccc2C1=O
24.2 µM: [5]
31.3 µM: [3]
29 µM: [6]
20.2 µM: [2]
25.7 µM: [7]
23.8 µM: [8]
17.5 µM: [10]
32.3 µM: [4]
28 µM: [1]
24.4 µM: [9]

O=C1/C(=N\S(=O)(=O)c2ccccc2)C([n+]2ccc(Cc3ccccc3)cc2)=C([O-])c2ccccc21
2.68 µM: [4]
3.44 µM: [7]
2.72 µM: [6]
4.7 µM: [1]
5.48 µM: [9]
2.12 µM: [2]
4.92 µM: [5]
4.49 µM: [10]
3.27 µM: [3]
18.5 µM: [8]

COc1ccc(NC(C)=O)cc1N1C(=O)/C(=C\c2cc(OC)c(OC)c(OC)c2)SC1c1ccccc1 (stereo not given)
60.2 µM: [7]
> 100 µM: [1] | [2] | [3] | [4] | [5] | [6] | [8] | [9]
65.6 µM: [10]

O=C(OCCN=c1c2ccccc2ccc2ccccc12)c1ccc([N+](=O)[O-])cc1
> 100 µM: [1] | [2] | [3] | [4] | [5] | [6] | [7] | [8] | [9] | [10]

Cc1cn(Cc2cnnn2CC2OC(n3cc(C)c(=O)[nH]c3=O)CC2O)c(=O)[nH]c1=O (stereo not given)
> 100 µM: [1] | [2] | [3] | [4] | [5] | [6] | [7] | [8] | [9] | [10]

Cc1c(NC(=O)CSC(=S)N2CCN(Cc3ccccc3)CC2)c(=O)n(-c2ccccc2)n1C
> 100 µM: [1] | [2] | [3] | [4] | [5] | [6] | [7] | [8] | [9] | [10]

COC1OC2COC1(OC)C1OC(C)(C)OC21 (stereo not given)
> 100 µM: [1] | [2] | [3] | [4] | [5] | [6] | [7] | [8] | [9] | [10]

COc1ccc(-c2c(C#N)c(S)n(NS(=O)(=O)c3ccc(C)cc3)c(=O)c2C#N)cc1
33.9 µM: [5]
> 100 µM: [2] | [3] | [7] | [8] | [9]
32.5 µM: [6]
77.5 µM: [1]
34.3 µM: [10]
52.9 µM: [4]

N#Cc1ccccc1-c1nc2c3c(c(N)ccc3n1)C(=O)c1ccccc1-2
> 100 µM: [1] | [2] | [3] | [4] | [5] | [6] | [8] | [9] | [10]
43.6 µM: [7]

C(CCCCc1nnc(N2CCCCC2)o1)CCCc1nnc(N2CCCCC2)o1
> 100 µM: [1] | [2] | [3] | [4] | [5] | [6] | [7] | [8] | [9] | [10]
